# Assay results: PubChem BioAssay AID1845203 (Molecular Pharmacology Branch, DTP, NCI, 2023)
# Test system: G-401 tumor spheroids, viability % test/control
# Assay: Anticancer human tumor G-401 cell line growth inhibition;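 further: spheroids exposed to compound for 7 days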;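 on viability, T/C: 100% = DMSO vehicle-treated spheroids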
# Conditions: spheroids with HUVEC and MSC; for IC50: curve of first compound; for viability, T/C: stronger effect = lower value
# Summary of the method: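 Complex tumor spheroids combined malignant cells with endothelial cells and mesenchymal stem cells. DNA-damaging drugs and DNA repair inhibitors were tested alone and in combination, at half-log dilutions down from clinical Cmax (top 10 microM if Cmax unknown), 0.25% DMSO final.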
# [1] = second compound 30 pM, first compound 0.0316 µM
# [2] = second compound 30 pM, first compound 0.1 µM
# [3] = second compound 30 pM, first compound 0.316 µM
# [4] = second compound 30 pM, first compound 1 µM
# [5] = second compound 30 pM, first compound 3.16 µM
# [6] = second compound 30 pM, first compound 10 µM
# [7] = second compound 94.9 pM, first compound 0.0316 µM
# [8] = second compound 94.9 pM, first compound 0.1 µM
# [9] = second compound 94.9 pM, first compound 0.316 µM
# [10] = second compound 94.9 pM, first compound 1 µM
# [11] = second compound 94.9 pM, first compound 3.16 µM
# [12] = second compound 94.9 pM, first compound 10 µM
# [13] = second compound 0.0003 µM, first compound 0.0316 µM
# [14] = second compound 0.0003 µM, first compound 0.1 µM
# [15] = second compound 0.0003 µM, first compound 0.316 µM
# [16] = second compound 0.0003 µM, first compound 1 µM
# [17] = second compound 0.0003 µM, first compound 3.16 µM
# [18] = second compound 0.0003 µM, first compound 10 µM
# [19] = second compound 0.000949 µM, first compound 0.0316 µM
# [20] = second compound 0.000949 µM, first compound 0.1 µM
# [21] = second compound 0.000949 µM, first compound 0.316 µM
# [22] = second compound 0.000949 µM, first compound 1 µM
# [23] = second compound 0.000949 µM, first compound 3.16 µM
# [24] = second compound 0.000949 µM, first compound 10 µM
# [25] = second compound 0.003 µM, first compound 0.0316 µM
# [26] = second compound 0.003 µM, first compound 0.1 µM
# [27] = second compound 0.003 µM, first compound 0.316 µM
# [28] = second compound 0.003 µM, first compound 1 µM
# [29] = second compound 0.003 µM, first compound 3.16 µM
# [30] = second compound 0.003 µM, first compound 10 µM
smiles,measurement,setting,value
Cc1cc(C)c(CNC(=O)c2cc(-c3ccc(CN4CCOCC4)cc3)cc3c2cnn3C2CCCC2)c(=O)[nH]1 + COc1cc2c(cc1O)CCNC21CSC2c3c(OC(C)=O)c(C)c4c(c3C(COC1=O)N1C(O)C3Cc5cc(C)c(OC)c(O)c5C(C21)N3C)OCO4,IC50,second compound 30 pM,> 10000 nM
same,IC50,second compound 94.9 pM,7070 nM
same,IC50,second compound 0.0003 µM,< 31.6 nM
same,IC50,second compound 0.000949 µM,< 31.6 nM
same,IC50,second compound 0.003 µM,< 31.6 nM
same,"viability, T/C",[1],107%
same,"viability, T/C",[2],109%
same,"viability, T/C",[3],111%
same,"viability, T/C",[4],119%
same,"viability, T/C",[5],97.7%
same,"viability, T/C",[6],53.9%
same,"viability, T/C",[7],93.3%
same,"viability, T/C",[8],110%
same,"viability, T/C",[9],106%
same,"viability, T/C",[10],107%
same,"viability, T/C",[11],81%
same,"viability, T/C",[12],36.6%
same,"viability, T/C",[13],43.3%
same,"viability, T/C",[14],46.5%
same,"viability, T/C",[15],37.9%
same,"viability, T/C",[16],30%
same,"viability, T/C",[17],25.2%
same,"viability, T/C",[18],17.4%
same,"viability, T/C",[19],9.71%
same,"viability, T/C",[20],9.04%
same,"viability, T/C",[21],6.87%
same,"viability, T/C",[22],6.92%
same,"viability, T/C",[23],6.27%
same,"viability, T/C",[24],4.18%
same,"viability, T/C",[25],11.6%
same,"viability, T/C",[26],0.13%
same,"viability, T/C",[27],0.27%
same,"viability, T/C",[28],0.15%
same,"viability, T/C",[29],0.54%
same,"viability, T/C",[30],0.2%
[2H]c1nc(C)nc([2H])c1-c1cc(NC[C@@H](C)c2cccc3c(C(=O)NC)ccnc23)ncn1 + COc1cc2c(cc1O)CCNC21CSC2c3c(OC(C)=O)c(C)c4c(c3C(COC1=O)N1C(O)C3Cc5cc(C)c(OC)c(O)c5C(C21)N3C)OCO4,IC50,second compound 30 pM,> 10000 nM
same,IC50,second compound 94.9 pM,> 10000 nM
same,IC50,second compound 0.0003 µM,< 31.6 nM
same,IC50,second compound 0.000949 µM,< 31.6 nM
same,IC50,second compound 0.003 µM,< 31.6 nM
same,"viability, T/C",[1],103%
same,"viability, T/C",[2],103%
same,"viability, T/C",[3],106%
same,"viability, T/C",[4],105%
same,"viability, T/C",[5],98.6%
same,"viability, T/C",[6],106%
same,"viability, T/C",[7],88.6%
same,"viability, T/C",[8],87.5%
same,"viability, T/C",[9],93%
same,"viability, T/C",[10],93.1%
same,"viability, T/C",[11],93.9%
same,"viability, T/C",[12],91.4%
same,"viability, T/C",[13],36.1%
same,"viability, T/C",[14],39.9%
same,"viability, T/C",[15],40%
same,"viability, T/C",[16],42.6%
same,"viability, T/C",[17],31.8%
same,"viability, T/C",[18],37.4%
same,"viability, T/C",[19],7.05%
same,"viability, T/C",[20],5.74%
same,"viability, T/C",[21],8.4%
same,"viability, T/C",[22],8.02%
same,"viability, T/C",[23],6.93%
same,"viability, T/C",[24],3.48%
same,"viability, T/C",[25],0.16%
same,"viability, T/C",[26],0.17%
same,"viability, T/C",[27],0.14%
same,"viability, T/C",[28],0.13%
same,"viability, T/C",[29],0.14%
same,"viability, T/C",[30],0.22%
